The values that follow come from patent US8394792B2, “Heterocyclic derivatives” (C&C Research Laboratories, priority 2008, dated 2013).

≈ marks a conversion by molar mass, not a printed value. Read-outs that look alike come from different tables or passages of the source. Where only a bound is given, the exact number is not on record here.

For data set [1] the following is noted: cited from earlier work; for excretion rate in urine: until 72 hours after administration of benzbromarone.
For a further data set, the system named is Cebus monkey. The data set can be described thus: Test for uricosuric effect in Cebus monkey. The note with it: for Plasma uric acid level: 4 hours after administration. The class given is in vivo.
A further data set has as its target T1, hURAT1 (Homo sapiens, UniProt Q96S37).
T1 construct: expressed in transfected cells; host or cells: HEK293 (human kidney cell line), transient transfection with Fugene6
T1 sequence (Q96S37 1-553): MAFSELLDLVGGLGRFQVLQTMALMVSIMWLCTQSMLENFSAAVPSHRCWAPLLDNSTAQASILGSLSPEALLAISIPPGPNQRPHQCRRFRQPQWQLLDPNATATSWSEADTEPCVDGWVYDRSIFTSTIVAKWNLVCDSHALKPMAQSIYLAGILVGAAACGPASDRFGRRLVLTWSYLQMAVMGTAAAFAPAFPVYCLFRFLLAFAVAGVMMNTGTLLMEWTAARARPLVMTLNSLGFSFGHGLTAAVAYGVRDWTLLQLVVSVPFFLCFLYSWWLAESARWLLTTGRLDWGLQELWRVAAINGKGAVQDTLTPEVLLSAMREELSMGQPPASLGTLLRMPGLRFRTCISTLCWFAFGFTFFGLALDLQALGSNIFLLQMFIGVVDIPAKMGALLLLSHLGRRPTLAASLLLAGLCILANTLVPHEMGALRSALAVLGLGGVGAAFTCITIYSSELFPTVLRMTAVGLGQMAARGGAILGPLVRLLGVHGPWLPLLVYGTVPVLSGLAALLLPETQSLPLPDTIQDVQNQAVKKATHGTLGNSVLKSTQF
The data set can be described thus: Test for inhibiting urate reuptake activity via hURAT1 (uric acid transport assay in hURAT1-overexpressed HEK293 cell line). Type of data set: cell-based. The note with it: hURAT1-overexpressed HEK293 cells, [14C]-uric acid uptake, 100 μM uric acid. How it is done: Test for Inhibiting Urate Reuptake Activity Via hURAT1
[hURAT1 Overexpression by Transient Transfection in Human Kidney Cell Line]
A human kidney cell line, HEK293 was incubated by using OptiMEM medium in 100 mm dish at (3*10^6 cells) for 24 hours. In order for the expression of hURAT1, a transfection mixture solution (Fugene6 18 μl:hURAT1 DNA 6 μg=3:1, in 600 μl OptiMEM medium/dish) was prepared and kept for 15 minutes at room temperature. To each dish, 600 μl of the mixture solution was injected and then incubated in 37[…] cell incubator for 24 hours. The hURAT1-overexpressed HEK293 cell line was trypsinized and cells were harvested. Cells were resuspended in medium and seeded at 6*10^5 cells/well and incubated for 24 hours in 24-well plate which was surface-coated with Poly-D-Lysine.
[Uric Acid Transport Assay in hURAT1-Overexpressed HEK293 Cell Line]
For each concentration, the stock sample solution was diluted in PBS (1 μl in 800 μl of PBS) as 1.25 fold concentrated working sample solution to obtain final concentrations of 0.01, 0.1, 1 and 10 μM. The hURAT1-overexpressed cell line was washed with 1 ml of PBS. After washing, PBS was discarded and the sample solution was diluted by 1.25 fold with PBS. Preincubation of cells with 200 μl/well of sample solution made above was conducted for 30 minutes in 37[…] cell incubator. After the incubation, each well was treated with 50 μl of PBS containing 500 μM [^14C]-uric acid (final 100 μM of uric acid/well). Cells were incubated for 2 minutes. The cells were washed twice with 1 ml of PBS.
To measure the uric acid uptake, each well was treated with 150 μl of M-per buffer (PIERCE) and kept in 37° C. cell incubator for 30 minutes to make cell lysates. 150 μl of cell lysates was transferred into test tube and 4 ml of scintillation cocktail was added. CPM value of [^14C]-uric acid absorbed into cells was detected using liquid scintillation counter. IC50 for the inhibition of uric acid uptake by each test sample was analyzed by computational numerical processing.

The nature of data set [2]: Test for solubility according to pH. The class given is physicochemical. The note with it: 37° C. 2 hours; for solubility at 2 h: thermodynamic from solid.
Another data set concerns the target CYP2C9 (Homo sapiens, UniProt P11712). The data set can be described thus: biochemical.
[3] abbreviates: 2 tablets (50 mg/tablet) benzbromarone one time, healthy fasting adult.
Where [4] appears, read: oral 15 mg/kg, during 0~8 hours.
Setting [5] is: read-out: IC50 (μM) hURAT, level of uric acid reuptake inhibition.
Where [6] appears, read: first solution pH about 1.2, 2 mg/mL.
Setting [7] is: second solution pH about 6.8, 2 mg/mL.
The mark [8] stands for this setting: 37 °C, pH 1.2, simulated gastric fluid, first solution pH about 1.2, 2 mg/mL, read-out: Solubility (μg/mL) pH 1.2.
[9] abbreviates: 37 °C, pH 6.8, aqueous buffer, second solution pH about 6.8, 2 mg/mL, read-out: Solubility (μg/mL) pH 6.8.

Chain of CYP2C9 (P11712 whole entry): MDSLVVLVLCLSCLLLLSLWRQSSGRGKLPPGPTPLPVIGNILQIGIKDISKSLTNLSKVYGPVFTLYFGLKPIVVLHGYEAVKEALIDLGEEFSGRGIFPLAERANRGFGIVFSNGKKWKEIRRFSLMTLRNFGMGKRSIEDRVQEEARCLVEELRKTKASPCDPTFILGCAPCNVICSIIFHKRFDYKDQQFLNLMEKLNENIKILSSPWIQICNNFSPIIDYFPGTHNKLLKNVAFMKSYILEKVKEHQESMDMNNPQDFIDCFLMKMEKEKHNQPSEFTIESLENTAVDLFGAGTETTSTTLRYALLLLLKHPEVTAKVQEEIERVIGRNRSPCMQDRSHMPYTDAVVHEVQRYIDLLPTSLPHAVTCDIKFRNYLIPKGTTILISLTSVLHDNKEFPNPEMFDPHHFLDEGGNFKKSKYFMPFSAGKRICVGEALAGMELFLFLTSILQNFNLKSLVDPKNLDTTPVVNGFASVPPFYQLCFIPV

Regarding `CCc1oc2cc(O)ccc2c1C(=O)c1cc(Br)c(O)c(Br)c1` [6-hydroxy benzbromarone], in data set [1] (setting [3]), the half-life of drug was 18.0 ± 2.9 h, the “maximum concentration of drug (Cmax)” value is 1700 ± 400 ng/mL and the “time of maximum drug concentration in blood (Tmax)” value was 4.8 ± 1.3 h. Also, the “excretion rate in urine” value in data set [1] is 1.2 % of the administered amount.
For `CCc1oc2ccccc2c1C(=O)c1cc(Br)c(O)c(Br)c1` [Benzbromarone, reference compound], the “Plasma uric acid level” value in the data set on Cebus monkey (oral 15 mg/kg) is on record as 3.80 mg/dL. For the same compound, the “Fractional excretion rate of uric acid (FEua)” value in the data set with Cebus monkey (setting [4]) is reported as 20.0±10.5%. For the same compound, in data set [1] (setting [3]), the “area under the curve (AUC)” value is 15900 ± 3300 ng·h/mL, the half-life of drug was 5.4 ± 1.9 h and the “time of maximum drug concentration in blood (Tmax)” value was 2.7 ± 1.0 h. The “excretion rate in urine” value in data set [1] is “not detected”.
Usually IC50 stands for the midpoint of a concentration-inhibition curve. `Br.O=C(c1cc(Br)c(O)c(Br)c1)N1CCOc2ccncc21` [Compound 3, (3,5-dibromo-4-hydroxy-phenyl)-(2,3-dihydro-pyrido[4,3-b][1,4]oxazin-4-yl)-methanone bromic acid salt]: the IC50 was determined as 0.0165 µM against hURAT1 (IC50 (μM) hURAT, level of uric acid reuptake inhibition) and 24500 nM against CYP2C9. Further, the solubility at 2 h is 1420 µg/mL in data set [2] (pH 1.2, simulated gastric fluid, first solution pH about 1.2, 2 mg/mL, read-out: Solubility (μg/mL) pH 1.2) and 886 µg/mL in data set [2] (pH 6.8, aqueous buffer, second solution pH about 6.8, 2 mg/mL, read-out: Solubility (μg/mL) pH 6.8). The “enhanced uricosuric activity compared to the compound disclosed in WO2006/057460” value with Cebus monkey (comparison test) was 180%.
Take `O=C(c1cc(Br)c(O)c(Br)c1)N1CCOc2ccncc21` [Compound 4, (3,5-dibromo-4-hydroxy-phenyl)-(2,3-dihydro-pyrido[4,3-b][1,4]oxazin-4-yl)-methanone]: the figures for the IC50 on hURAT1 (setting [5]) and on CYP2C9 were 0.023 µM and 24300 nM, respectively. The “Solubility (μg/mL) pH 1.2” value in data set [2] (setting [6]) stood at 1927 μg/mL. Further, the “Solubility (μg/mL) pH 6.8” value in data set [2] (setting [7]) is on record as 970 μg/mL. Also, in the data set on Cebus monkey (15 mg/kg, during 0~8 hours), the “enhanced uricosuric effect compared with Benzbromarone” value was 160%. Further, the figures for the “Plasma uric acid level” value in the data set with Cebus monkey (oral 3.75 mg/kg), in the data set on Cebus monkey (oral 7.5 mg/kg) and in the data set on Cebus monkey (oral 15 mg/kg) were 3.88 mg/dL, 3.66 mg/dL and 3.40 mg/dL, respectively. Further, the “Fractional excretion rate of uric acid (FEua)” value in the data set on Cebus monkey (oral 3.75 mg/kg, during 0~8 hours) was determined as 24.1±13.3%; in the data set on Cebus monkey (oral 7.5 mg/kg, during 0~8 hours) it was 31.6±13.3%; in the data set with Cebus monkey (setting [4]), 33.2±19.8%.
For the compound `COC(=O)COc1c(Br)cc(C(=O)N2CCOc3ccncc32)cc1Br` [Compound 24, (2,6-dibromo-4-(2,3-dihydro-pyrido[4,3-b][1,4]oxazin-4-carbonyl)-phenoxy]-acetic acid methyl ester], the IC50 is 0.363 µM at hURAT1 (setting [5]) and more than 20000 nM against CYP2C9. For the same compound, the solubility at 2 h in data set [2] (setting [8]) was 1250 µg/mL (≈ 2580 µM); in data set [2] (setting [9]) it was 134 µg/mL (≈ 275 µM).
Regarding `Cc1cnc2c(c1)N(C(=O)c1cc(Br)c(O)c(Br)c1)CCO2` [Compound 27-2, (3,5-dibromo-4-hydroxy-phenyl)-(7-methyl-2,3-dihydro-pyrido[2,3-b][1,4]oxazin-1-yl)-methanone], the IC50 on hURAT1 (setting [5]) is 0.012 µM; against CYP2C9, more than 20000 nM. The solubility at 2 h is 207 µg/mL (≈ 484 µM) in data set [2] (setting [8]) and 579 µg/mL (≈ 1350 µM) in data set [2] (setting [9]).
In the same order, the values of `O=C(c1cc(F)c(O)c(F)c1)N1CCOc2ccncc21` [Compound 29, (3,5-difluoro-4-hydroxy-phenyl)-(2,3-dihydro-pyrido[4,3-b][1,4]oxazin-4-yl)-methanone] are 0.235 µM, more than 20000 nM, 1090 µg/mL (≈ 3720 µM) and 382 µg/mL (≈ 1310 µM).
In the same order, the values of `O=C(c1cc(Br)c(O)c(Br)c1)N1CCOc2ccnc(Cl)c21` [Compound 30, (5-chloro-2,3-dihydro-pyrido[4,3-b][1,4]oxazin-4-yl)-(3,5-dibromo-4-hydroxy-phenyl)-methanone] are 0.028 µM, more than 40000 nM, 7.2 µg/mL (≈ 16.1 µM) and 332 µg/mL (≈ 740 µM).
Regarding `O=S(=O)(c1cc(Br)c(O)c(Br)c1)N1CCOc2ccncc21` [Compound 35-2, 2,6-dibromo-4-(2,3-dihydro-pyrido[4,3-b][1,4]oxazin-4-sulfonyl)-phenol], the IC50 is 0.277 µM at hURAT1 (setting [5]) and more than 20000 nM at CYP2C9. Moreover, the solubility at 2 h in data set [2] (setting [8]) is 1460 µg/mL (≈ 3240 µM); in data set [2] (setting [9]), 234 µg/mL (≈ 519 µM).
In the same order, the values of `O=C(c1cc(Cl)c(O)c([N+](=O)[O-])c1)N1CCOc2cnccc21` [Compound 36, (3-chloro-4-hydroxy-5-nitro-phenyl)-(2,3-dihydro-pyrido[3,4-b][1,4]oxazin-1-yl)-methanone] are 0.175 µM, 1930 nM, 1560 µg/mL (≈ 4650 µM) and 743 µg/mL (≈ 2210 µM).
In the same order, the values of `O=C(c1ccc(O)c(Cl)c1)N1CCOc2ccncc21` [Compound 37, (3-chloro-4-hydroxy-phenyl)-(2,3-dihydro-pyrido[4,3-b][1,4]oxazin-4-yl)-methanone] are 0.212 µM, more than 20000 nM, 1930 µg/mL (≈ 6640 µM) and 114 µg/mL (≈ 393 µM).
In the same order, the values of `O=C(c1cc(Cl)c(O)c(Cl)c1)N1CCOc2ccncc21` [Compound 39, (3,5-dichloro-4-hydroxy-phenyl)-(2,3-dihydro-pyrido[4,3-b][1,4]oxazin-4-yl)-methanone] are 0.0884 µM, more than 20000 nM, 1340 µg/mL (≈ 4120 µM) and 480 µg/mL (≈ 1480 µM).
As to `O=C(c1cc(Cl)c(O)c(Cl)c1)N1CCOc2cnccc21` [Compound 41, (3,5-dichloro-4-hydroxy-phenyl)-(2,3-dihydro-pyrido[3,4-b][1,4]oxazin-1-yl)-methanone], the IC50 is 0.376 µM at hURAT1 (setting [5]) and more than 20000 nM on CYP2C9. Moreover, in data set [2] (setting [6]), the “Solubility (μg/mL) pH 1.2” value came to 808.87 μg/mL. For the same compound, the “Solubility (μg/mL) pH 6.8” value in data set [2] (setting [7]) is reported as 156.54 μg/mL.
Take `O=C(Cc1cc(Br)c(O)c(Br)c1)N1CCOc2ccncc21` [Compound 42, 2-(3,5-dibromo-4-hydroxy-phenyl)-1-(2,3-dihydro-pyrido[4,3-b][1,4]oxazin-4-yl)-ethanone]: the values for the IC50 at hURAT1 (setting [5]) and against CYP2C9 were 0.2 µM and 18400 nM, respectively. Further, the figures for the solubility at 2 h in data set [2] (setting [8]) and in data set [2] (setting [9]) were 1310 µg/mL (≈ 3060 µM) and 143 µg/mL (≈ 333 µM), respectively.
In the same order, the values of `N#Cc1cnc2c(c1)N(C(=O)c1cc(Br)c(O)c(Br)c1)CCO2` [Compound 47-2, 1-(3,5-dibromo-4-hydroxy-benzoyl)-2,3-dihydro-1H-pyrido[2,3-b][1,4]oxazin-7-carbonitrile] are 0.0179 µM, more than 20000 nM, 6.4 µg/mL (≈ 14.6 µM) and 330 µg/mL (≈ 751 µM).
Taken in the same sequence, the figures for `O=C(c1cc(Br)c(O)c(Br)c1)N1CCOc2ncncc21` [Compound 62, (3,5-dibromo-4-hydroxy-phenyl)-(6,7-dihydro-pyrimido[4,5-b][1,4]oxazin-5-yl)-methanone] were 0.128 µM, more than 20000 nM, 34.8 µg/mL (≈ 83.8 µM) and 624 µg/mL (≈ 1500 µM).
